Publication PMC3716995, “A phase I study of ridaforolimus in adult Chinese patients with advanced solid tumors” (Journal of Hematology & Oncology, 2013)
Where “and” joins values, the source holds several entries; their conditions need not be identical. Equal values may be shown once. Read-outs that look alike come from different tables or passages of the source. Marks after values point to notes of the source that are not given here.

What was measured:
[1] = parameters: method as in internal PK data; settings: Caucasian patients, ref internal PK data, cited from earlier work
advanced sarcoma = tested on: advanced sarcoma; parameters: method as in earlier work; settings: maintenance therapy, cited from earlier work
[2] = parameters: method as in PMID 22143378; settings: Japanese patients, cited from earlier work
[3] = Whole blood pharmacokinetics of oral ridaforolimus 40 mg in Chinese patients (HPLC-MS/MS, WinNonlin); type: in vivo; settings: for AUC(0-t): read-out: AUC0-24; for concentration at 24 h: read-out: C24hr
Experimental: (§1) The eligible patients were given the following treatment regimen: a single oral dose of 40 mg of ridaforolimus on Day 1; and then, the treatment started from Day 8 with an oral dose of 40 mg of ridaforolimus for five consecutive days (on Day 8 through Day 12) followed by two day's off (Day 13 and 14). The treatment repeated every 7 days. Four treatment weeks was considered one treatment cycle. Sample blood for PK analysis were collected at the following times: on Day 1 prior to drug administration and for 168 h post-dose (at 1, 2, 3, 4, 6, 8, 24, 72, 96, and 168 h post-treatment); on Day 8 and Day 15 prior to drug administration; on Day 19 prior to drug administration and for 24 h post-dose (at 1, 2, 3, 4, 6, 8 and 24 h post-treatment). We monitored patients’ vital signs and conducted laboratory and physical examinations on trial Day 1, 8 and 19.
Ridaforolimus concentration in both whole blood and plasma was analyzed using high-performance liquid chromatography with tandem mass spectrometric detection set at a lower limit of quantification of 0.2 ng/mL (Wuxi AppTec, Shanghai, China). Pharmacokinetic analyses were performed with WinNonlin, version 5.2.1 (Pharsight Corp., St. Louis, MO, USA). AUC0-∞, AUC0-24hr, C24hr, and Cmax were determined for each patient on Day 1 and on Day 19, if applicable, and the geometric means as well as the 95% CI were calculated. The accumulation of ridaforolimus was assessed for Cmax and for AUC0-24hr (geometric mean ratio Day 19 / Day 1 and 90% CI).

[4] = parameters: method as in PMID 18202410, PMID 19228743, PMID 22143378; settings: Caucasians and Japanese patients, cited from earlier work
[5] = Safety and tolerability (adverse events, CTCAE v4.0) of oral ridaforolimus 40 mg in Chinese patients; type: in vivo
Experimental: as §1
(§2) The patients continued to receive 40 mg of ridaforolimus for five consecutive days followed by two day's off until disease progression or intolerability. Averse events were monitored every four weeks and AEs were graded according to the Common Terminology Criteria for Adverse Events version 4.0. We also monitored patients’ vital signs and conducted laboratory and physical examinations every four weeks. Radiographic studies for disease assessment were conducted at baseline and again after every two treatment cycles (thus, every eight weeks). Tumor responses were assessed according to the Response Evaluation Criteria for Solid Tumors 1.1 guidelines. We conducted a full safety assessment in all patients four weeks after the administration of the last treatment dose.

[6] = tested on: treatment-refractory advanced or relapsed solid tumors; assay: Tumor response (RECIST 1.1) in Chinese patients; type: in vivo
Experimental: as §2

[7] = single dose, geometric mean (95% CI)
[8] = Day 1, single oral dose 40 mg, whole blood, median
[9] = human, whole blood, po, 40 mg, Day 1, single oral dose 40 mg, whole blood, geometric mean
[10] = Grade 3 non-serious adverse event
[11] = Grade 4 non-serious adverse event
[12] = N = 15, not considered drug-related by the investigator
[13] = non-serious adverse event, all grades, N = 15

Structure (SMILES): CO[C@H]1C[C@@H]2CC[C@@H](C)[C@@](O)(O2)C(=O)C(=O)N2CCCC[C@H]2C(=O)O[C@H]([C@H](C)C[C@@H]2CC[C@@H](OP(C)(C)=O)[C@H](OC)C2)CC(=O)[C@H](C)/C=C(\C)[C@@H](O)[C@@H](OC)C(=O)[C@H](C)C[C@H](C)/C=C/C=C/C=C/1C [ridaforolimus, Ridaforolimus]
- AUC0-24 ([1]; multiple dose): 1882(1630, 2180) ng.hr/ml
- Cmax ([1]; multiple dose): 160(136, 188) ng/ml
- AUC0-24 [1, 7]: 992(801, 1230) ng.hr/ml
- Cmax [1, 7]: 112(84.6, 148) ng/ml
- t1/2 ([1]; single dose, harmonic mean (pseudo SD)): 42.0(17.7)^d hr
- Tmax ([1]; single dose, median (min, max)): 2.79(1.42, 9.78) hr
- Accumulation ratio AUC0-24 ([1]; geometric mean ratio (90% CI)): 1.90(1.63, 2.21)
- Accumulation ratio Cmax ([1]; geometric mean ratio (90% CI)): 1.43(1.22, 1.68)
- Median PFS (advanced sarcoma; vs 14.6 weeks for placebo, P = 0.0001): 17.7 weeks
- Median overall survival at data cut-off (386 deaths) (advanced sarcoma; vs 83.4 weeks for placebo, P = 0.23): 93.3 weeks
- AUC0-24 ([2]; multiple dose): 2,120 (1,320, 3,410) ng.hr/ml
- Cmax ([2]; multiple dose): 188 (116, 306) ng/ml
- Tmax ([2]; multiple dose): 4.04 (4.00, 8.15) hr
- AUC0-24 [2, 7]: 1,470 (914, 2,360) ng.hr/ml
- Cmax [2, 7]: 187 (115, 304) ng/ml
- t1/2 ([2]; single dose, harmonic mean (jack-knife SD)): 55.8 (50.95, 60.65)^c hr
- Tmax ([2]; single dose, median (min, max)): 4.00 (4.00, 8.00) hr
- Accumulation ratio AUC0-24 ([2]; geometric mean ratio (90% CI)): 1.44 (1.05, 1.99)
- Accumulation ratio Cmax ([2]; geometric mean ratio (90% CI)): 1.01 (0.674, 1.50)
- Linearity of blood PKs ([3]; AUC0-24hr at steady state lower than AUC0-∞ after single dose): non-linear
- Apparent t1/2 (elimination half-life) ([3]; Day 1, single oral dose 40 mg, whole blood, harmonic mean): 52.9 h
- Tlag (absorption lag time) [3, 8]: 2 h and 2.00 h
- Tmax [3, 8]: 4.03 h
- Absorption after oral administration ([3]; human, in vivo, po): slowly absorbed
- AUC(0-t) [3, 9]: 1850 ng·h/mL
- concentration at 24 h [3, 9]: 34.8 ng/mL
- Cmax ([3]; human, whole blood, po, 40 mg, Day 1, single oral dose 40 mg, whole blood, geometric mean, read-out: Cmax): 210 ng/mL
- half-life ([3]; human, whole blood, po, 40 mg, Day 1, single oral dose 40 mg, whole blood, harmonic mean, read-out: Apparent t1/2 (elimination half-life) (converted)): 53 h
- Tmax ([3]; human, whole blood, po, 40 mg, Day 1, single oral dose 40 mg, whole blood, median, read-out: Tmax): 4 h
- Cmax ([3]; human, whole blood, po, 40 mg, Day 1, single oral dose 40 mg, read-out: Cmax, median value): 192 ng/mL
- AUC(0-t) ([3]; human, whole blood, po, 40 mg, Day 19, multiple once daily oral 40 mg (steady state), whole blood, geometric mean): 2010 ng·h/mL
- concentration at 24 h ([3]; human, whole blood, po, 40 mg, Day 19, multiple once daily oral 40 mg, whole blood, geometric mean): 49.7 ng/mL
- Cmax ([3]; human, whole blood, po, 40 mg, Day 19, multiple once daily oral 40 mg, whole blood, geometric mean, read-out: Cmax): 167 ng/mL
- Tmax ([3]; human, whole blood, po, 40 mg, Day 19, multiple once daily oral 40 mg, whole blood, median, read-out: Tmax): 4 h
- Cmax ([3]; human, whole blood, po, 40 mg, Day 19, multiple once daily oral 40 mg, read-out: Cmax, median value): 203 ng/mL
- AUC(0-inf) ([3]; human, Day 1, single oral dose 40 mg, whole blood, geometric mean): 3650 ng·h/mL
- Tolerability ([4]; oral 40mg per day for five consecutive days followed by two day's off): well tolerated
- Most important dose limiting toxicity ([4]; oral ridaforolimus): stomatitis
- Anaemia Grade 3, number of patients [5, 10]: 2/15
- Anaemia Grade 3, percentage of patients [5, 10]: 13.3%
- Constipation Grade 3, number of patients [5, 10]: 1/15
- Constipation Grade 3, percentage of patients [5, 10]: 6.7%
- Fatigue Grade 3, number of patients [5, 10]: 2/15
- Fatigue Grade 3, percentage of patients [5, 10]: 13.3%
- Gamma-glutamyltransferase increase Grade 3, number of patients [5, 10]: 1/15
- Gamma-glutamyltransferase increase Grade 3, percentage of patients [5, 10]: 6.7%
- Platelet count decrease Grade 3, number of patients [5, 10]: 1/15
- Platelet count decrease Grade 3, percentage of patients [5, 10]: 6.7%
- Proteinuria Grade 3, number of patients [5, 10]: 1/15
- Proteinuria Grade 3, percentage of patients [5, 10]: 6.7%
- Stomatitis Grade 3, number of patients [5, 10]: 2/15
- Stomatitis Grade 3, percentage of patients [5, 10]: 13.3%
- Anaemia Grade 4, number of patients [5, 11]: 1/15
- Anaemia Grade 4, percentage of patients [5, 11]: 6.7%
- Platelet count decrease Grade 4, number of patients [5, 11]: 1/15
- Platelet count decrease Grade 4, percentage of patients [5, 11]: 6.7%
- Patients who discontinued as a result of drug-related fatigue ([5]; N = 15): one
- Patients who discontinued as a result of drug-related interstitial lung disease ([5]; N = 15): three
- Patients who discontinued as a result of drug-related stomatitis ([5]; N = 15): one
- Patients who discontinued due to drug-related AEs ([5]; N = 15): five
- Patients who discontinued treatment as a result of AEs ([5]; N = 15): six
- Patients who developed serious AEs, number [5, 12]: Four
- Patients who developed serious AEs, percentage [5, 12]: 26.7%
- Patients who developed Grade 2 interstitial pneumonitis ([5]; all recovered after interruption and glucocorticoids): Three
- Non-serious AEs considered Grade 3 ([5]; fifteen patients): 11
- Non-serious AEs considered Grade 4 ([5]; fifteen patients): 2
- Non-serious AEs deemed by the investigator as drug related ([5]; fifteen patients): 111
- Total number of non-serious AEs reported ([5]; fifteen patients): 135
- Grade 3/4 drug-related AEs ([5]; human, in vivo): anemia, stomatitis, fatigue, thrombocytopenia, constipation, gamma glutamyltransferase increase, and proteinuria
- Most common drug-related adverse events (occurred in ≥40% of patients) ([5]; human, in vivo): stomatitis, proteinuria, leukopenia, hyperglycemia, and pyrexia
- ALT increase, number of patients [5, 13]: 3
- ALT increase, percentage of patients [5, 13]: 20%
- Anemia, number of patients [5, 13]: 5
- Anemia, percentage of patients [5, 13]: 33.3%
- Blood alkaline phosphatase increased, number of patients [5, 13]: 4
- Blood alkaline phosphatase increased, percentage of patients [5, 13]: 26.7%
- Blood cholesterol increased, number of patients [5, 13]: 5
- Blood cholesterol increased, percentage of patients [5, 13]: 33.3%
- Fatigue, number of patients [5, 13]: 4
- Fatigue, percentage of patients [5, 13]: 26.7%
- Gamma-glutamyltransferase increased, number of patients [5, 13]: 6
- Gamma-glutamyltransferase increased, percentage of patients [5, 13]: 40%
- Hyperglycaemia, number of patients [5, 13]: 7
- Hyperglycaemia, percentage of patients [5, 13]: 46.7%
- Hypoalbuminaemia, number of patients [5, 13]: 5
- Hypoalbuminaemia, percentage of patients [5, 13]: 33.3%
- Interstitial lung disease, number of patients [5, 13]: 3
- Interstitial lung disease, percentage of patients [5, 13]: 20%
- Platelet count decrease, number of patients [5, 13]: 5
- Platelet count decrease, percentage of patients [5, 13]: 33.3%
- Proteinuria, number of patients [5, 13]: 11
- Proteinuria, percentage of patients [5, 13]: 73.3%
- Pyrexia, number of patients [5, 13]: 6
- Pyrexia, percentage of patients [5, 13]: 40%
- Stomatitis, number of patients [5, 13]: 12
- Stomatitis, percentage of patients [5, 13]: 80%
- White blood cell count decrease, number of patients [5, 13]: 8
- White blood cell count decrease, percentage of patients [5, 13]: 53.3%
- Tolerability ([5]; once a day oral dose of 40 mg, Chinese patients): generally well tolerated
- Changes from baseline over time in serum cholesterol, serum glucose, serum triglycerides ([5]; summary statistics, an elevation from baseline was observed): no clinically significant elevations
- Patients who discontinued treatment because of progressive disease ([6]; N = 15): Eight
- Partial or complete responses ([6]; RECIST 1.1): absence of partial or complete responses
